This is an account of results in patent US4689326A, “Process for controlling hyperlipidemia” (Research Corporation, priority 1985, dated 1987).

Where two headings read alike, the source gives them in different places.

Holding throughout (assay type): in vivo, CF1 male mice
Experiment [1] relates to serum cholesterol. The experiment can be described thus: Hypolipidemic Activity of Compounds 1 and 10-33, Example 13: serum cholesterol. As to conditions: Mus musculus, 20 mg/kg/day ip. How it is done: (§1) Compounds 1 and 10-33, identified below in Table 11, were suspended by homogenation in a 1% aqueous solution of carboxymethylcellulose (CMC) such that a 0.2 ml dosage supplied a concentration of 20 mg/kg of the active compounds. The suspending agent, the 1% aqueous solution of CMC, was utilized as a control, applied in the same quantity, 0.2 ml. CF1 male mice, maintained in groups of six, were fed Wayne Blox [trademark] laboratory animal show ad libitum with water. The mice, which each weighed approximately 25 g, were administered the drugs interperitoneally at approximately the same time. On days 9 and 16 approximately […] of blood was taken from each of the animals by tail bleeding. After centrifugation to obtain serum, 25 microliter samples were assayed for total cholesterol utilizing the method of Ness et al. Serum triglyicerides were assayed, using a commercially available BioDynamics/bmc triglyiceride kit, on blood collected on the 16th day. By comparison to standards the milligram percent of cholesterol and milligram per deciliter concentration of triglicerides were calculated. Treated values were expressed as a percent of the level of the control animals plus or minus the standard deviation. The "T" values were obtained using the Student's "t" test.

Experiment [2] has as its system serum triglycerides. Put plainly: Hypolipidemic Activity of Compounds 1 and 10-33, Example 13: serum triglycerides. As to conditions: Mus musculus, 384 h; 20 mg/kg/day ip, day 16, ± SD; read-out: Serum Triglyceride as a function of control, 16 Day. The protocol: as §1
The subject of experiment [3] is serum cholesterol. Put plainly: Testing of Normal Mice: serum cholesterol (modified Liebermann-Burchard), Example 7. Particulars: Mus musculus; for response vs control in vivo at 20 mg/kg: 20 mg/kg/day ip; for response vs control in vivo at 150 mg/kg: 150 mg/kg/day ip. The protocol:
(§2) Suspensions of Compounds Nos. 1-9 were prepared wherein the compounds were suspended in an aqueous 1% carboxymethylcelluose solution, homogenized and administered to CF1 male mice, each weighing approximately 25 grams, intraperitoneally on a daily basis for 16 days. The dosage was, with the exception of one compound, 20 milligrams of the active compound per kilogram of mouse weight per day. On days 9 and 16 blood was obtained by tail vein bleeding. The blood serum was separated by centrifugation for three minutes. Serum cholesterol levels were determined by a modification of the Liebermann-Burchard reaction. Serum was also collected on day 16 and the triglycerides content was determined by a commercial kit, BioDynamics/bnc Single Vile Colorimetric Method 348201. Each compound was tested on a group of six mice.
(§3) In addition to the above-described treated mice, untreated control groups of six mice were similarly tested on days 9 and 14 or 16 to determine their serum cholesterol and triglycerides blood levels. Table 5 reports the percent control, based on the serum cholesterol and serum triglyceride levels of the treated mice compared to the untreated controls. Table 5 also includes the standard deviation indicating the level of confidence of these numbers.
(§4) Example 7 was repeated substituting clofibrate, a compound used in the prior art to lower serum cholesterol and serum triglyceride levels. The clofibrate was administered as a suspension in an aqueous 1% solution of carboxymethylcellulose. However, unlike the compounds of the present invention which were administered at a dosage of 20 mg/kg day, ip, this compound was administered at the elevated concentration of 150 mg/kg day, ip.

Experiment [4] relates to serum triglycerides. The experiment can be described thus: Testing of Normal Mice: serum triglycerides (BioDynamics kit), Example 7. Particulars: Mus musculus, 384 h, day 16, ± SD; for response vs control in vivo at 20 mg/kg: 20 mg/kg/day ip. The protocol:
as §2, §3, §4

Where [5] appears, read: 216 h, day 9, ± SD, read-out: Serum Cholesterol Control, % Day 9.
Setting [6] is: 384 h, day 16, ± SD, read-out: Serum Cholesterol Control, % Day 16.

On to `O=c1[nH]c(=O)c2ccccc2c2ccccc12` [Compound 1, Diphenimide], for which the response vs control in vivo at 20 mg/kg with serum cholesterol [1] (216 h, day 9, ± SD, read-out: Serum Cholesterol as a function of control, 9 Day) was 81 ± 7%; in the experiment on serum cholesterol [1] (384 h, day 16, ± SD, read-out: Serum Cholesterol as a function of control, 16 Day), 82 ± 4%; in the experiment with serum triglycerides [2] it was 81 ± 7%; in the experiment on serum cholesterol [3] (setting [5]) it was 81 ± 7%; with serum cholesterol [3] (setting [6]) it was 82 ± 4%; with serum triglycerides [4] it was 81 ± 7%.

For `CCCCN1Cc2ccccc2-c2ccccc2C1` [Compound 7, 2-butyl-3,4,5,6-dibenzohomopiperidine], the response vs control in vivo at 20 mg/kg in the experiment on serum cholesterol [3] (setting [5]) came to 82 ± 7%; in the experiment on serum cholesterol [3] (setting [6]), 59 ± 6%; with serum triglycerides [4], 52 ± 7%.

For `CCCCCN1Cc2ccccc2-c2ccccc2C1` [Compound 8, 2-pentyl-3,4,5,6-dibenzohomopiperidine], the values for the response vs control in vivo at 20 mg/kg in the experiment on serum cholesterol [3] (setting [5]), in the experiment on serum cholesterol [3] (setting [6]) and with serum triglycerides [4] were 71 ± 6%, 67 ± 5% and 71 ± 4%, respectively.

For the compound `CC(=O)CCN1Cc2ccccc2-c2ccccc2C1` [Compound 9, 2-(3-Oxobutyl)-3,4,5,6-Dibenzohomopiperidine], the results for the response vs control in vivo at 20 mg/kg in the experiment with serum cholesterol [3] (setting [5]), in the experiment with serum cholesterol [3] (setting [6]) and in the experiment on serum triglycerides [4] were 69 ± 8%, 56 ± 7% and 45 ± 5%, respectively.

Turning to `CCOC(=O)C(C)(C)Oc1ccc(Cl)cc1` [Compound C2, clofibrate, reference compound], the response vs control in vivo at 150 mg/kg in the experiment on serum cholesterol [3] (setting [5]) was 88 ± 7%; with serum cholesterol [3] (setting [6]), 87 ± 5%; with serum triglycerides [4] (150 mg/kg/day ip) it was 75 ± 5%.
